Ends that are not written are not given here.
Experiments:
[1] = tested on: Matrix metalloprotease-I (MMP-I); experiment: Collagen protection: degradation of collagen type I in ECM replicates by MMP-I (hydroxyproline assay); assay type: biochemical; details: CI + HA + treatment, 50 hr at 37° C.
Procedure: ECM-based constructs containing collagen alone, collagen+HA+CS, or collagen+HA+10.5GAH−CS were created in 8-well chambered slides as described previously. The final sample volume was 200 μL consisting of 0.8 mg of collagen type I. Matrix metalloprotease-I (MMP-I, R&D Systems, Minneapolis, Minn.) at a concentration of 0.133 mg/mL, was activated following the protocol detailed in the manufacturer's instructions. Briefly, MMP-1, already dissolved in manufacturer's buffer (50 mM Tris, 10 mM CaCl2, 150 mM NaCl, 0.05% Brij-35, pH 7.5), was combined with an equal volume of 25 mM APMA (Sigma) in DMSO at 37° C. for 2 hrs to activate the enzyme. Upon activation, the MMP-1 solution was diluted two fold in water and was added to the sample as a 100 μL supernatant. […] Following hydrolysis, the amount of hydroxyproline (hyp) was analyzed according to the protocol developed by Reddy, et al. (Clin Biochem, 1996, 29: 225-9). […] After the development of the chlorophore, the samples were read on a spectrophotometer at a wavelength of 550 nm. Absorbance readings were compared to those obtained from known concentrations of collagen to determine the amount of collagen remaining in each sample.
Each replicate sample was constructed with 0.8 mg of CI, and after degradation, the remaining CI amount was determined by the protocol developed by Reddy et al. and converting that to CI amount by a set of CI standards. […]

[2] = tested on: Hyaluronidase (Type II from Sheep Testes); experiment: Protection of hyaluronic acid from hyaluronidase degradation (dynamic viscosity); assay type: biochemical; details: 0.5 wt % HA, 75:1 treatment to HA molar ratio
Procedure: Dynamic viscosity values of HA solutions were determined using the AR-G2. High molecular weight HA solutions have a large viscosity due to the extensive chain entanglement caused by the long chain length. Hyaluronidase (Type II from Sheep Testes, Sigma) cleaves the HA chain, creating shorter chains with less entanglement. The shorter HA chains will have a measurably lower viscosity. HA solutions were incubated with 100 units/mL hyaluronidase. Dynamic viscosities were determined using a time sweep with constant angular frequency and oscillatory stress initially and at 2 and 4-hour timepoints. Samples (at 0.5 wt % HA) consisted of HA, HA+CS, and HA+10.5GAH−CS. The treatment values were added at a 75:1 treatment to HA molar ratio. The percent degradation was calculated for each measurement by dividing the initial viscosity from the difference of the measured viscosity minus the initial viscosity.
Viscosities of each treatment without hyaluronidase (TES Buffer replaced the hyaluronidase volume) were initially measured and served as the baseline for the percent degradation calculations. The 0 hr timepoint involved the addition of the hyaluronidase, mixing of the solution, pipetting onto the rheometer, and the beginning equilibration operation of the machine. Therefore, the 0 hr timepoint occurred approximately two minutes after the addition of hyaluronidase. […]

[3] = Diffusion of peptidoglycans through cartilage matrix (avidin-biotin stain); details: aggrecan-depleted bovine cartilage explant, 10 μM diffused through articular surface for one hour
Procedure: Cartilage explants were obtained from the load bearing region of three month old bovine knee joints. Native aggrecan was removed from harvested cartilage explants leaving a matrix consisting primarily of type II collagen and residual GAG. This was achieved by treating explants with 0.5% (w/v) trypsin in HBSS for 3 hours at 37° C. (FIG. 13). After trypsin treatment explants were washed three times in HBSS and incubated with 20% FBS to inactivate residual trypsin activity. Peptidoglycan was dissolved in distilled water at 10 μM concentration and diffused through the articular surface of cartilage explants by placing 10 μL of the solution on the surface every ten minutes for one hour at room temperature (FIG. 14). Normal cartilage and aggrecan depleted cartilage were treated with 1×PBS as positive and negative controls respectively. After diffusion, explants were washed three times with 1×PBS and stored at −20° C. until further testing. Diffusion of peptidoglycan was confirmed by staining a midsagittal section of the tissue with streptavidin-horseradish peroxidase stain. The streptavidin stain binds to the biotin labeled molecule and is depicted as a brown color (FIGS. 15 and 16).

aggrecan = experiment: Real-time PCR, aggrecan expression; assay type: cell-based, bovine; details: chondrocytes in collagen scaffolds with versus without mAGC
Procedure: (§1) Following the cell culture study, constructs were stored in RNAlater solution (Ambion) at 4° C. for less than one week. Total mRNA was extracted using Nucleospin RNA II (Clontech) according to manufacturer's protocols. Extracted mRNA from all samples was quantified using Nanodrop 2000 spectrophotometer (Thermo Scientific) and reverse transcribed into cDNA using High Capacity cDNA Reverse Transcriptase Kit (Applied Biosystems). Real-time PCR was performed using Taqman Gene Expression Assays (Applied Biosystems) with the following primers: GAPDH (Bt03210913_gl), aggrecan (Bt03212186_ml) and collagen type II (Bt03251861_ml). 60 ng of cDNA template was prepared per 20 μL reaction for the two genes of interest and the endogenous gene. Real-time PCR analysis was carried out using a Taqman PCR Master Mix and 7500 Real-Time PCR System (Applied Biosystems). Data reported was normalized to GAPDH gene expression.

[4] = tested on: bovine chondrocytes in collagen scaffolds; experiment: In vitro inflammation model: CS release into media (DMMB assay); assay type: cell-based; details: cumulative over eight-day culture, with and without 20 ng/mL IL-1β, versus scaffolds with CS
Procedure: (§2) Collagen scaffolds seeded with chondrocytes were stimulated with IL-1β and assessed for degradation products.
(§3) Primary chondrocytes were harvested from three-month-old bovine knee joints obtained from an abattoir within 24 hours of slaughter (Dutch Valley Veal). Cartilage slices, 150-200 μm thick, were shaved from the lateral femoral condyle and washed three times in serum-free DMEM/F-12 medium (50 μg/mL ascorbic acid 2-phosphate, 100 μg/mL sodium pyruvate, 0.1% bovine serum albumin, 100 units/mL penicillin, 100 μg/mL streptomycin and 25 mM HEPES) prior to digestion with 3% fetal bovine serum (FBS) and 0.2% collagenase-P (Roche Pharmaceuticals) at 37° C. for six hours. Released chondrocytes were filtered through 70 μm cell strainer and centrifuged at 1000 rpm three times for five minutes each in medium listed above supplemented with 10% FBS. The cell pellet was resuspended in 10% FBS supplemented media and plated on 10 cm dishes at 10,000 cells/mL in a 37° C., 5% CO2 humidified incubator until confluent. […]
(§4) GAG degradation was monitored by measuring CS released in cell culture media using the dimethylmethylene blue (DMMB) dye assay and computed with a chondroitin-6-sulfate standard curve. Similarly, type I collagen degradation in cell culture media was monitored using the Sircol Collagen Assay using manufacturer specified protocols (Bio-Color). […]

[5] = tested on: bovine chondrocytes in collagen scaffolds; experiment: In vitro inflammation model: collagen breakdown (Sircol assay); assay type: cell-based; details: cumulative over eight-day culture, with and without 20 ng/mL IL-1β, versus scaffolds with CS
Procedure: as §2, §3, §4

[6] = tested on: Sprague-Dawley rat knee joints; experiment: Animal model of osteoarthritis (surgical induction), microCT; assay type: in vivo, Sprague-Dawley rats; details: six and eight weeks after OA induction surgery; 10 μl of a 1 μm mAGC weekly starting at week 4
Procedure: Sprague-Dawley rats (250-300 g) were used for surgery. The patellar tendon, the anterior and posterior cruciate ligaments and the medial, lateral collateral ligaments were transected. The medial and lateral meniscuses were totally menisectomized. The knee joint capsule was repaired with an absorbable suture and the skin was closed with a 4-0 monofilament nylon. Starting at week 4, 10 μl of a 1 μm mAGC was administered weekly.
The extent of inflammation was indicated by the MMP-13 probe (FIG. 18) in Sprague-Dawley rats treated with and without peptidoglycan at four, six and eight weeks post surgery (FIG. 19). […] Injured knees 6 weeks and 8 weeks following OA induction, (FIG. 21, Panels A and D, respectively), injured knees following peptidoglycan treatment (FIG. 21, Panels B and E, respectively), and Normal knee (FIG. 21, Panel C), are shown.

collagen type II = experiment: Real-time PCR, collagen type II expression; assay type: cell-based, bovine
Procedure: as §1

chondroitin sulfate [CS]
percent degradation of CI [1]: 74.7%
percent degradation of HA ([2]; 0 hr timepoint (about 2 min after hyaluronidase)): almost complete degradation
percent degradation of HA ([2]; 2 hr timepoint): above 90%

mAG(II)C: Collagen type II binding peptidoglycan with peptide WYRGRLGC (SEQ ID NO: 36) (also: attached to glycosaminoglycan backbone)
depth of penetration into tissue [3]: approximately 200 um

mAGC: HA binding peptidoglycan (aggrecan mimic): GAHWQFNALTVRGGGC (SEQ ID NO: 35) peptides attached to chondroitin sulfate; peptide number not stated (also: attached to chondroitin sulfate)
aggrecan expression (normalized to GAPDH) (aggrecan): lower aggrecan expression
amount of CS released into cell culture media [4]: significantly decreased
amount of collagen released into cell culture media [5]: significantly decreased
cartilage by MicroCT [6]: re-growth of new cartilage
level of collagen type II expression (normalized to GAPDH) (collagen type II; aligned collagen scaffolds): higher in scaffolds prepared with mAGC
level of collagen type II expression (normalized to GAPDH) (collagen type II; unaligned scaffolds): higher in scaffolds prepared without mAGC
